Reference: patent US7772235B2, “mGluR5 modulators” (Astrazeneca AB, priority 2006, dated 2010)
“And” between values parts separate entries of the source, which are not always exact repeats. Identical values can stand only once.

Columns and labels:
[1] = Determination of brain to plasma ratio (B/P ratio) in rat; type: in vivo, female Sprague Dawley rats; details: female, Sprague-Dawley, read-out: B/P Ratio (drug in brain over drug in plasma)
Protocol: Brain to plasma ratios are estimated in female Sprague Dawley rats. The compound is dissolved in water or another appropriate vehicle. For determination of brain to plasma ratio the compound is administrated as a subcutaneous, or an intravenous bolus injection, or an intravenous infusion, or an oral administration. At a predetermined time point after the administration a blood sample is taken with cardiac puncture. The rat is terminated by cutting the heart open, and the brain is immediately retained. The blood samples are collected in heparinized tubes and centrifuged within 30 minutes, in order to separate the plasma from the blood cells. The plasma is transferred to 96-well plates and stored at −20° C. until analysis. The brains are divided in half, and each half is placed in a pre-tarred tube and stored at −20° C. until analysis. Prior to the analysis, the brain samples are thawed and 3 mL/g brain tissue of distilled water is added to the tubes. The brain samples are sonicated in an ice bath until the samples are homogenized. Both brain and plasma samples are precipitated with acetonitrile. After centrifugation, the supernatant is diluted with 0.2% formic acid. […] After reconstitution of the residuals the samples are ready for injection onto the HPLC column.

human mGluR5d = molecular target: T1, human mGluR5d (Homo sapiens, UniProt P41594); experiment: FLIPR assay of mGluR5 antagonism (intracellular calcium mobilization); type: cell-based; details: cells expressing human mGluR5d
T1 construct: expressed in transfected cells
T1 sequence (P41594 21-942 isoform P41594-3 limits assumed): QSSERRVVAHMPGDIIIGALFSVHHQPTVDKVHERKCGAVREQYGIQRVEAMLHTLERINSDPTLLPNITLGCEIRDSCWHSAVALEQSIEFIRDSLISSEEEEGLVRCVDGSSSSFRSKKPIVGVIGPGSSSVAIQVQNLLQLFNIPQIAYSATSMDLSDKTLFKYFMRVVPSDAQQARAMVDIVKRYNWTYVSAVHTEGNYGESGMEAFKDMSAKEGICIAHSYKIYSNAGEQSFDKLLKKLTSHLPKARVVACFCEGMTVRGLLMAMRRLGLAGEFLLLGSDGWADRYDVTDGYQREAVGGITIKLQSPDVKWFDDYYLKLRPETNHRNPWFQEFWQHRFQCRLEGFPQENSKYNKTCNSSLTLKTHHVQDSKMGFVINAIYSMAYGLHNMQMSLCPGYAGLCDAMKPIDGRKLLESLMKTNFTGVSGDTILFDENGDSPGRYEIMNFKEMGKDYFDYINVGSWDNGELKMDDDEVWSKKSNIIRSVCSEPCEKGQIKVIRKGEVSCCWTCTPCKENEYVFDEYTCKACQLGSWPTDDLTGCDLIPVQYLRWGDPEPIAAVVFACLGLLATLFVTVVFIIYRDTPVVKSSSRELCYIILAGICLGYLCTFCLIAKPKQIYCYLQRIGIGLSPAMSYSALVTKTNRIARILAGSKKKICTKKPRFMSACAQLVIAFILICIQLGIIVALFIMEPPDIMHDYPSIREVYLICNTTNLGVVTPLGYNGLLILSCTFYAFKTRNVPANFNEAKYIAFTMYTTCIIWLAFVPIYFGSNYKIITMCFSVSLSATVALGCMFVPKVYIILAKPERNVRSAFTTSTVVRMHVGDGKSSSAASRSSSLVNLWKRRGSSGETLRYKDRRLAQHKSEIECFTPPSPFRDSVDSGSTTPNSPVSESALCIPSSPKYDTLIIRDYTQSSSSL
Excerpt: The properties of the compounds of the invention can be analyzed using standard assays for pharmacological activity. Examples of glutamate receptor assays are well known in the art as described in for example Aramori et al., Neuron 8:757 (1992), Tanabe et al., Neuron 8:169 (1992), Miller et al., J. Neuroscience 15: 6103 (1995), Balazs, et al., J. Neurochemistry 69:151 (1997). The methodology described in these publications is incorporated herein by reference. Conveniently, the compounds of the invention can be studied by means of an assay (FLIPR) that measures the mobilization of intracellular calcium, [Ca^2+]i in cells expressing mGluR5 or another assay (IP3) that measures inositol phosphate turnover.
Cells expressing human mGluR5d as described in WO97/05252 are seeded at a density of 100,000 cells per well on collagen coated clear bottom 96-well plates with black sides and experiments are done 24 h following seeding. All assays are done in a buffer containing 127 mM NaCl, 5 mM KCl, 2 mM MgCl2, 0.7 mM NaH2PO4, 2 mM CaCl2, 0.422 mg/mL NaHCO3, 2.4 mg/mL HEPES, 1.8 mg/mL glucose and 1 mg/mL BSA Fraction IV (pH 7.4). Cell cultures in the 96-well plates are loaded for 60 minutes in the above mentioned buffer containing 4 μM of the acetoxymethyl ester form of the fluorescent calcium indicator fluo-3 (Molecular Probes, Eugene, Oreg.) in 0.01% pluronic acid (a proprietary, non-ionic surfactant polyol—CAS Number 9003-11-6). Following the loading period the fluo-3 buffer is removed and replaced with fresh assay buffer. FLIPR experiments are done using a laser setting of 0.800 W and a 0.4 second CCD camera shutter speed with excitation and emission wavelengths of 488 nm and 562 nm, respectively. Each experiment is initiated with 160 μl of buffer present in each well of the cell plate. A 40 μl addition from the antagonist plate was followed by a 50 μL addition from the agonist plate. A 30 minute interval separates the antagonist and agonist additions. The fluorescence signal is sampled 50 times at 1 second intervals followed by 3 samples at 5 second intervals immediately after each of the two additions. Responses are measured as the difference between the peak height of the response to agonist, less the background fluorescence within the sample period. IC50 determinations are made using a linear least squares fitting program.

## C[C@@H](Oc1nnc(-c2ccncc2)n1C)c1cc(-c2cccc(Cl)c2)on1 [reference compound]
[1]
  Kp: 0.8

## C[C@@H](Oc1nnc(-c2cc[nH]c(=O)c2)n1C)c1nnn(-c2cccc(Cl)c2)n1 [Example 38.2, 4-(5-{(1R)-1-[2-(3-Chlorophenyl)-2H-tetrazol-5-yl]ethoxy}-4-methyl-4H-1,2,4-triazol-3-yl)pyridin-2(1H)-one]
Human mGluR5d
  IC50: 0.009 µM

## Cc1cccc(-c2cc([C@@H](C)Oc3nnc(-c4cn[nH]c(=O)c4)n3C)no2)c1 [Example 38.7, 5-(4-Methyl-5-{(1R)-1-[5-(3-methylphenyl)isoxazol-3-yl]ethoxy}-4H-1,2,4-triazol-3-yl)pyridazin-3(2H)-one]
Human mGluR5d
  IC50: 0.012 µM

## C[C@@H](Oc1nnc(-c2cn[nH]c(=O)c2)n1C)c1cc(-c2cccc(Cl)c2)on1 [Example 38.5, 5-(5-{(1R)-1-[5-(3-Chlorophenyl)isoxazol-3-yl]ethoxy}-4-methyl-4H-1,2,4-triazol-3-yl)pyridazin-3(2H)-one]
Human mGluR5d
  IC50: 0.008 µM

## C[C@@H](Oc1nnc(-c2cn[nH]c(=O)c2)n1C)c1nnn(-c2cccc(Cl)c2)n1 [Example 38.3, 5-(5-{(1R)-1-[2-(3-Chlorophenyl)-2H-tetrazol-5-yl]ethoxy}-4-methyl-4H-1,2,4-triazol-3-yl)pyridazin-3(2H)-one]
Human mGluR5d
  IC50: 0.006 µM

## C[C@@H](Oc1nnc(-c2cc[nH]c(=O)c2)n1C)c1cc(-c2cccc(Cl)c2)on1 [Example 37.3, 4-(5-{(1R)-1-[5-(3-Chlorophenyl)isoxazol-3-yl]ethoxy}-4-methyl-4H-1,2,4-triazol-3-yl)pyridin-2(1H)-one]
[1]
  Kp: 0.02
Human mGluR5d
  IC50: 0.01 µM

## Cc1cccc(-n2nnc([C@@H](C)Oc3nnc(-c4cn[nH]c(=O)c4)n3C)n2)c1 [Example 38.6, 5-(4-Methyl-5-{(1R)-1-[2-(3-methylphenyl)-2H-tetrazol-5-yl]ethoxy}-4H-1,2,4-triazol-3-yl)pyridazin-3(2H)-one]
Human mGluR5d
  IC50: 0.007 µM

## Cn1c(OCc2cc(-c3cccc(Cl)c3)on2)nnc1-c1cc[nH]c(=O)c1 [Example 37.2, 4-(5-{[5-(3-chlorophenyl)isoxazol-3-yl]methoxy}-4-methyl-4H-1,2,4-triazol-3-yl)pyridin-2(1H)-one]
Human mGluR5d
  IC50: > 3 µM and 1.58 µM

## C[C@@H](Oc1nnc(-c2cc[nH]c(=O)c2)n1C)c1noc(-c2cccc(Cl)c2)n1 [Example 38.1, 4-(5-{(R)-1-[5-(3-Chloro-phenyl)-[1,2,4]oxadiazol-3-yl]-ethoxy}-4-methyl-4H-[1,2,4]triazol-3-yl)-1H-pyridin-2-one]
Human mGluR5d
  IC50: 0.013 µM

## C[C@@H](Oc1nnc(-c2ccn(C)c(=O)c2)n1C)c1noc(-c2cccc(Cl)c2)n1 [Example 36.2, 4-(5-{(1R)-1-[5-(3-Chlorophenyl)-1,2,4-oxadiazol-3-yl]ethoxy}-4-methyl-4H-1,2,4-triazol-3-yl)-1-methylpyridin-2(1H)-one]
Human mGluR5d
  IC50: 0.02 µM

## C[C@@H](Oc1nnc(-c2ccn(C)c(=O)c2)n1C)c1cc(-c2cccc(Cl)c2)on1 [Example 36.1, 4-(5-{(1R)-1-[5-(3-Chlorophenyl)isoxazol-3-yl]ethoxy}-4-methyl-4H-1,2,4-triazol-3-yl)-1-methylpyridin-2(1H)-one]
Human mGluR5d
  IC50: 0.019 µM

## C[C@@H](Oc1nnc(-c2cn[nH]c(=O)c2)n1C)c1noc(-c2cccc(Cl)c2)n1 [Example 38.4, 5-(5-{(1R)-1-[5-(3-Chlorophenyl)-1,2,4-oxadiazol-3-yl]ethoxy}-4-methyl-4H-1,2,4-triazol-3-yl)pyridazin-3(2H)-one]
Human mGluR5d
  IC50: 0.015 µM
